Measured values taken from US20240287025A1, “TETRAHYDROQUINOLINE (THQ) COUMPOUNDS” (Centre National de la Recherche Scientifique, priority 2021, published 2024).

Key:
[1] = tested on: LPS-stimulated J774 mouse macrophages cells; experiment: RNA sequencing, gene expression profiles of LPS-stimulated cells; assay type: cell-based; conditions: 10 μM, 6 h, RNAseq
Protocol: Experimental procedure: RNA was extracted from 5 million of LPS-stimulated J774 mouse macrophages cells treated for 6 h with DMSO (negative control), reference iBETs (JQ1 and iBET726, 1 μM) and lead compounds (MLE83 and JUP102, 10 μM) using Trizol (Invitrogen) according to manufacturer's instructions. RNA sequencing was subcontracted to BGI Genomics ([…] Sequencing Technology). FASTQ sequencing files were aligned to mouse genome (GRCm39 assembly) using STAR (v2.7.1a). Bam files were counted using HTSeq framework (v0.11.2). Reads normalization and differential analysis was performed suing SARTools and DESeq2 (v1.22.2) R packages. Genes were considered as differentially expressed when |log 2FC|>1 AND p value <0.05 between control and treated conditions. Gene Set Enrichment Analysis was performed using GSEA v4.2.1 software against the hallmark v7.5 gene sets from the Broad Institute Molecular Signature Database. A detailed description of GSEA methodology and interpretation is provided online (http://www.broadinstitute.org/gsea/doc/GSEAUserGui-deFrame.html).

J774 mouse macrophages = experiment: Cytotoxicity and anti-inflammatory activity (IL-6/TNFα, AI score) after iBET/LPS treatment; assay type: cell-based; conditions: AI score versus cytotoxicity, FIG. 7
Protocol: J774 mouse macrophages were cultured in DMEM 10% Fetal Calf Serum (FCS) 1% penicillin and streptomycin at 37° C. 5% CO2. […]. Cells were then seeded at 250,000 cells/ml and treated with 1 μM, 10 μM and 100 μM for each iBET and, then, after 30 min, with 100 μg/ml LPS (lipopolysaccharides, Cell Signaling Technology ref: 14011S) to induce inflammatory response. After 24 h, cytotoxicity was evaluated using CytoTox-ONE™ Homogeneous Membrane Integrity Assay and/or CellTiter 96 Non-radioactive Cell Proliferation Assay (Promega) according to manufacturer's instructions. IL6 and TNFα secretion were assessed using respectively IL-6 Mouse ELISA assay and TNFα Mouse ELISA assay (Invitrogen) according to manufacturer's instructions.
Experimental procedure: J774 mouse macrophages were cultured in DMEM 10% Fetal Calf Serum (FCS) 1% penicillin and streptomycin at 37° C. 5% CO2. […] After 24 h, cytotoxicity was evaluated using the Cell Proliferation Kit I (Roche) according to manufacturer's instructions. IC50 were calculated using GraphPad (Prism) using non linear regression curve fit. IL6 and TNF[…] secretion was assessed using respectively IL-6 Mouse and TNFα Mouse ELISA assay (Invitrogen) on cell culture supernatants according to manufacturer's instructions. […]

Brd4 BD2 = Brd4 BD2 (Homo sapiens (Human), UniProt O60885); experiment: HTRF evaluation of bromodomain inhibitors, Brd4 BD2; assay type: binding; conditions: for IC50: HTRF, H4ac4 peptide 600 nM, 24 h at 4° C.; for Selectivity BD2/BD1: ratio of the BD1 and BD2 IC50
Protocol: (§1) HTRF reagents and buffers were purchased from Cisbio Bioassays. The assay used a terbium (Ill) cryptate donor reagent conjugated to an anti-GST antibody (MAb anti-GST-Tb; GSTTLA), a streptavidin-conjugated acceptor reagent (streptavidin-d2) and Cisbio proprietary buffers (EPlgeneous Binding Domain Diluent and Detection buffer, respectively). GST-tagged bromodomains (BDs) were expressed in E. coli and purified using standard procedures. Incubation of GST-tagged BDs with biotinylated acetylated H4 peptide (H4K5acK8acK12acK16ac, here named H4ac4) brings the donor and acceptor into close proximity and allows for a FRET reaction. GST-tagged proteins in 25 mM Hepes pH 7.5, 150 mM NaCl, 0.5 mM DTT were assayed at a final concentration of 5 nM. Biotinylated H4ac4 peptides were used at a final concentration of 50, 600 nM in assays involving Brd4 BD1, Brd4 BD2, respectively. The antibody-conjugated donor was used at 0.5 nM and the streptavidin-conjugated acceptor was used at ⅛ of the H4ac4 peptide concentration. Inhibitors were tested by performing an eleven-point dilution series with a maximal final concentration of […]. These concentrations allowed a fixed DMSO concentration at 0.2%, critical for a Z′ factor ≥0.8. Components were incubated at 4° C. for 4 h (BD1) or for 24 h (BD2). Experiments were performed in 384-well white plates (Greiner ref. 781080) and analyzed in a ClarioStar plate reader (BMG LABTECH, excitation at 330 nm and emission at 620 and 665 nm, corresponding to the donor and acceptor emission peaks, respectively; the 665/620 ratio is used to calculate the specific HTRF signal) with an integration delay of 60 μs and an integration time of 400 μs.

Brd4 BD1 = Brd4 BD1 (Homo sapiens (Human), UniProt O60885); experiment: HTRF evaluation of bromodomain inhibitors, Brd4 BD1; assay type: binding; conditions: H4ac4 peptide 50 nM, 4 h at 4° C.
Protocol: as §1

C#CCOCCOCCOCc1cn([C@@H]2c3cc(C(=O)OC)ccc3N(C(C)=O)[C@@H](CC)[C@H]2C)nn1 [XQ]
GSEA analysis, iBET-associated cellular responses [1]: reduces inflammatory response and MYC signaling
inflammatory activity/toxicity ratio (J774 mouse macrophages): best inflammatory activity/toxicity ratio
IC50 (Brd4 BD2): 1490 nM
Selectivity BD2/BD1 (Brd4 BD2): 11.2
IC50 (Brd4 BD1): 16600 nM

C=CCCCC(=O)Nc1ccc(-c2ccc3c(c2)[C@@H](n2cc(-c4ccccc4)nn2)[C@H](C)[C@H](CC)N3C(C)=O)cc1 [XD, N-(4-((2S,3R,4S)-1-acetyl-2-ethyl-3-methyl-4-(4-phenyl-1H-1,2,3-triazol-1-yl)-1,2,3,4-tetrahydroquinolin-6-yl)phenyl)hex-5-enamide]
GSEA analysis, iBET-associated cellular responses [1]: reduces inflammatory response and MYC signaling
number of genes impacted, times fewer than JUP102 [1]: ~10 times
inflammatory activity/toxicity ratio (J774 mouse macrophages): best inflammatory activity/toxicity ratio
IC50 (Brd4 BD2): 620 nM
Selectivity BD2/BD1 (Brd4 BD2): 1.1
IC50 (Brd4 BD1): 562 nM
